Read-outs that look alike come from different tables or passages of the source.
Tests used:
Test in all cases: Kinase panel profiling at 1 µmol/L (MSA or IMAP), percentage inhibition
Type in all cases: biochemical
[1] = biological target: T1, panel of 255 wild-type kinases (Homo sapiens, UniProt O15264); settings: read-out: %-inhibition, p38δ
T1 sequence (O15264 1-365): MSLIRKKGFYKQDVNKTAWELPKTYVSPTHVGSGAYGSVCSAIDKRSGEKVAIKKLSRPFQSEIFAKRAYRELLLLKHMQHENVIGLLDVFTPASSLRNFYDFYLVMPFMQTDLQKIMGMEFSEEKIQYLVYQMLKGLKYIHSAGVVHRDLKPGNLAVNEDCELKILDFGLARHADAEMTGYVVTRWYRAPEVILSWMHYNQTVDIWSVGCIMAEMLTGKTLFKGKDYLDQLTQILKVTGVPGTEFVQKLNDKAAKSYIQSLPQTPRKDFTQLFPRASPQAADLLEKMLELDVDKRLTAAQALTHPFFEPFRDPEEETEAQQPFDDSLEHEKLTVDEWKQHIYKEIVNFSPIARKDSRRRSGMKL

[2] = biological target: T2, panel of 255 wild-type kinases (Homo sapiens, UniProt Q12851); settings: read-out: %-inhibition at 1 µmol/L, MAP4K2
T2 sequence (Q12851 1-820): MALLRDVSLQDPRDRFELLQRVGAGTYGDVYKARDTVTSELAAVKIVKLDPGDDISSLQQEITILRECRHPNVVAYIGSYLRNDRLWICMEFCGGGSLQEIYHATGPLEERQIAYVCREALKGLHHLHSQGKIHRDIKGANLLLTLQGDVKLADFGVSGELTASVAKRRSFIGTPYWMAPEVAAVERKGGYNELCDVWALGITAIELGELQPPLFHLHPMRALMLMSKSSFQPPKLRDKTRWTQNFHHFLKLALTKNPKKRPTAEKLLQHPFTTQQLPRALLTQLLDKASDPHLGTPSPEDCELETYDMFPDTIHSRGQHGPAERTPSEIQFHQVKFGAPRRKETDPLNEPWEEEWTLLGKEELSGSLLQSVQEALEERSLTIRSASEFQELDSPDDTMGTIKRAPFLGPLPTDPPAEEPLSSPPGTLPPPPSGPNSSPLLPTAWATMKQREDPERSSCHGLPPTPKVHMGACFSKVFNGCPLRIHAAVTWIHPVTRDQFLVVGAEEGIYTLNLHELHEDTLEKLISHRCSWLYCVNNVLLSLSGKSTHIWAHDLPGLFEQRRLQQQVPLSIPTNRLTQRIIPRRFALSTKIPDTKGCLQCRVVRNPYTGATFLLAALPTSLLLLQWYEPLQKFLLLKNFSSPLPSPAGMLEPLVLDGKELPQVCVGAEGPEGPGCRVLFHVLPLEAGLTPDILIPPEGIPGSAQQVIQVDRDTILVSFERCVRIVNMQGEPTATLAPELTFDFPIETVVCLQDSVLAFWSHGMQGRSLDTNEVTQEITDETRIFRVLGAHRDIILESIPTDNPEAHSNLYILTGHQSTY

[3] = biological target: panel of 255 wild-type kinases (Homo sapiens, UniProt Q16288); settings: read-out: %-inhibition at 1 µmol/L, TRKC
[4] = biological target: T3, panel of 255 wild-type kinases (Homo sapiens, UniProt P54753); settings: read-out: %-inhibition at 1 µmol/L, EPHB3
T3 sequence (P54753 34-998): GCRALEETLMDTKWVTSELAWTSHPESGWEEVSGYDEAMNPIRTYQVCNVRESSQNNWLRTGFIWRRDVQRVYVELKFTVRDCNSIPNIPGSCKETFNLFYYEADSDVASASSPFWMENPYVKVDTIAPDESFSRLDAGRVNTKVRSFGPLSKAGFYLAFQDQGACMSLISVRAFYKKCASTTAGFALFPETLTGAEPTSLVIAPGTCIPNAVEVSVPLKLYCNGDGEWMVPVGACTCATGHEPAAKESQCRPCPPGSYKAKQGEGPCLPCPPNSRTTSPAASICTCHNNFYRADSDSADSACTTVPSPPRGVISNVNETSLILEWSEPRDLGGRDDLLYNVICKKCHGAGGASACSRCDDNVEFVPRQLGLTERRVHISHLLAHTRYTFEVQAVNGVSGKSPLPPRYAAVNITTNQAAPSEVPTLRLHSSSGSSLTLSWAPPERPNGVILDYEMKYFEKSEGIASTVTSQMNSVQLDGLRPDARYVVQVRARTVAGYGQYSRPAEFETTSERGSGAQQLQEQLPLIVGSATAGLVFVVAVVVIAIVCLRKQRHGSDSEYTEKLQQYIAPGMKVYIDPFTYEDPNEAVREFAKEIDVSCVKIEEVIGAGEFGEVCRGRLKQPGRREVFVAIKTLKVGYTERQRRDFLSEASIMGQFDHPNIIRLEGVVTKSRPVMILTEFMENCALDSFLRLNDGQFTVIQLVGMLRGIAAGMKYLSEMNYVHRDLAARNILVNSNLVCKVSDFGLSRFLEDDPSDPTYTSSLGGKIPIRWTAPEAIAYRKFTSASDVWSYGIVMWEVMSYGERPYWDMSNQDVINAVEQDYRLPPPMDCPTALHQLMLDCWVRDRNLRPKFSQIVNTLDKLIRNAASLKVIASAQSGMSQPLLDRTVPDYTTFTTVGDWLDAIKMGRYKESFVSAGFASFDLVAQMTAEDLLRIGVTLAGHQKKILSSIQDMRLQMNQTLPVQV

[5] = biological target: panel of 255 wild-type kinases (Homo sapiens, UniProt P49759); settings: read-out: %-inhibition at 1 µmol/L, CLK1
[6] = biological target: panel of 255 wild-type kinases (Homo sapiens, UniProt P57059); settings: read-out: %-inhibition at 1 µmol/L, SIK
[7] = biological target: panel of 255 wild-type kinases (Homo sapiens, UniProt P28482); settings: read-out: %-inhibition at 1 µmol/L, Erk2
[8] = biological target: panel of 255 wild-type kinases (Homo sapiens, UniProt Q14012); settings: read-out: %-inhibition CaMK1α
[9] = p38δ, 1 µmol/L single concentration
[10] = kinase MAP4K2, 1 µmol/L single concentration
[11] = kinase TRKC, 1 µmol/L single concentration
[12] = kinase EPHB3, 1 µmol/L single concentration
[13] = kinase CLK1, 1 µmol/L single concentration
[14] = kinase SIK, 1 µmol/L single concentration
[15] = kinase Erk2, 1 µmol/L single concentration
[16] = CaMK1α kinase assay, 1 µmol/L single concentration

SMILES | inhibition at 1 µM [1, 9] [%] | inhibition at 1 µM [2, 10] [%] | inhibition at 1 µM [3, 11] [%] | inhibition at 1 µM [4, 12] [%] | inhibition at 1 µM [5, 13] [%] | inhibition at 1 µM [6, 14] [%] | inhibition at 1 µM [7, 15] [%] | inhibition at 1 µM [8, 16] [%] | inhibition at 1 µM [1] [%] | inhibition at 1 µM [2] [%] | inhibition at 1 µM [3] [%] | inhibition at 1 µM [4] [%] | inhibition at 1 µM [5] [%] | inhibition at 1 µM [6] [%] | inhibition at 1 µM [7] [%] | inhibition at 1 µM [8] [%]
COC(=O)N[C@@H](C)CNc1nccc(-c2cn(C(C)C)nc2-c2cc(Cl)cc(NS(C)(=O)=O)c2F)n1 [encorafenib] | 5 | 4 | -0.54 | 4 | 3 | 2.23 | 2.55 | 2.72 |  |  |  |  |  |  |  | 
C[C@H](Nc1ncnc2nc[nH]c12)c1cc2cccc(Cl)c2c(=O)n1-c1ccccc1 [duvelisib] | -3 | 2.36 | 2 | 4 | -0.419 | -1.9 | 0.0602 | -5.33 |  |  |  |  |  |  |  | 
CCN1CCN(c2ccc(Nc3cc(N(C)C(=O)Nc4c(Cl)c(OC)cc(OC)c4Cl)ncn3)cc2)CC1 [infigratinib] | -4 | 23 | 6 | -1 | 10 | 30 | -4 | -22 |  |  |  |  |  |  |  | 
CNC(=O)c1ccc(-c2cnc3ncc(Cc4ccc5ncccc5c4)n3n2)cc1F [capmatinib] |  |  |  |  |  |  |  |  | -4 | -0.216 | 19 | 0.192 | 8 | -6.33 | 1.14 | -9
FC(F)(F)c1ccc(CNc2ccc(Cc3c[nH]c4ncc(Cl)cc34)cn2)cn1 [pexidartinib] | 1.15 | 31 | 81 | -7 | 13 | 9 | -3.53 | -13 |  |  |  |  |  |  |  | 
O=C(Nc1cnn2ccc(N3CCC[C@@H]3c3cc(F)ccc3F)nc12)N1CC[C@H](O)C1 [larotrectinib] | -7 | -2 | 101 | -0.506 | 5.31 | -1.7 | -6 | -1.63 |  |  |  |  |  |  |  | 
CCc1nc(C(N)=O)c(Nc2ccc(N3CCC(N4CCN(C)CC4)CC3)c(OC)c2)nc1NC1CCOCC1 [gilteritinib] | 1.74 | 99 | 100 | 8 | 96 | 59 | -1.15 | 41 |  |  |  |  |  |  |  | 
CCn1c(=O)c(-c2cc(NC(=O)Nc3ccccc3)c(F)cc2Br)cc2cnc(NC)cc21 [ripretinib] | -0.186 | 44 | 54 | 59 | 1 | 66 | -2.43 | -8 |  |  |  |  |  |  |  | 
CN1CCN(c2ccc(C(=O)Nc3n[nH]c4ccc(Cc5cc(F)cc(F)c5)cc34)c(NC3CCOCC3)c2)CC1 [entrectinib] | -3 | 85 | 100 | 8 | 60 | 7.49 | -0.572 | -5.68 |  |  |  |  |  |  |  | 
Cn1cnc2c(F)c(Nc3ccc(Br)cc3F)c(C(=O)NOCCO)cc21 [binimetinib] | 3.49 | -1.27 | -0.843 | 3.28 | -1.7 | 0.277 | 0.0301 | -5 |  |  |  |  |  |  |  | 
COc1ccc(CN2C3CC2CN(c2ccc(-c4cc(OCC(C)(C)O)cn5ncc(C#N)c45)cn2)C3)cn1 [selpercatinib] | -6.33 | 4.23 | 10 | -0.598 | 19 | 9 | -4 | -5.55 |  |  |  |  |  |  |  | 
Cc1nc(NC(=O)N2CCC[C@H]2C(N)=O)sc1-c1ccnc(C(C)(C)C(F)(F)F)c1 [alpelisib] | -4.21 | 5.56 | 2.52 | -0.582 | 59 | -10 | -0.753 | -10 |  |  |  |  |  |  |  | 
Cc1cc(Nc2ncnc3ccc(NC4=NC(C)(C)CO4)cc23)ccc1Oc1ccn2ncnc2c1 [tucatinib] | -0.0555 | 6 | 2.53 | -5.68 | 7 | 0.717 | -0.547 | -5.47 |  |  |  |  |  |  |  | 
Cn1cnc2c(F)c(Nc3ccc(Br)cc3Cl)c(C(=O)NOCCO)cc21 [selumetinib] | -4 | 2.67 | 10 | -3 | 5 | -3 | -4.4 | -4.36 |  |  |  |  |  |  |  | 
C[C@H]1Oc2cc(cnc2N)-c2c(nn(C)c2C#N)CN(C)C(=O)c2ccc(F)cc21 [lorlatinib] | -3.52 | 20 |  | 13 | -2.47 | -1.87 | 0.392 | 1.49 |  |  |  |  |  |  |  | 
Cn1cc(-c2cc3c(N4CCN(c5ncc([C@@](C)(N)c6ccc(F)cc6)cn5)CC4)ncnn3c2)cn1 [avapritinib] | 0.654 | 14 | 57 | 3 |  | 37 | 5 | -9 |  |  |  |  |  |  |  | 

— article PMC9516332 (Frontiers in Oncology, 2022)
